# Test results from patent US9284369B2, “Inhibition of angiogenesis” (Genentech, Inc., priority 2007, dated 2016).
# B1: M-CSF: recombinant human M-CSF (R&D Systems) (protein, UniProt P09603 33-554, looked up)
# Macrophage colony-stimulating …: EEVSEYCSHMIGSGHLQSLQRLIDSQMETSCQITFEFVDQEQLKDPVCYLKKAFLLVQDIMEDTMRFRDNTPNAIAIVQLQELSLRLKSCFTKDYEEHDKACVRTFYETPLQLLEKVKNVFNETKNLLDKDWNIFSKNCNNSFAECSSQDVVTKPDCNCLYPKAIPSSDPASVSPHQPLAPSMAPVAGLTWEDSEGTEGSSLLPGEQPLHTVDPGSAKQRPPRSTCQSFEPPETPVVKDSTIGGSPQPRPSVGAFNPGMEDILDSAMGTNWVPEEASGEASEIPVPQGTELSPSRPGGGSMQTEPARPSNFLSASSPLPASAKGQQPADVTGTALPRVGPVRPTGQDWNHTPQKTDHPSALLRDPPEPGSPRISSLRPQGLSNPSTLSAQPQLSRSHSSGSVLPLGELEGRRSTRDRRSPAEPEGGPASEGAARPLPRFNSVPLTDTGHERQSEGSFSPQLQESVFHLLVPSVILVLLAVGGLLFYRWRRRSHQEPQRADSPLEQPEGSPLTQDDRQVELPV
# B2: IL-10: recombinant human IL-10 (PeproTech) (protein, UniProt P22301 19-178, looked up)
# Interleukin-10: SPGQGTQSENSCTHFPGNLPNMLRDLRDAFSRVKTFFQMKDQLDNLLLKESLLEDFKGYLGCQALSEMIQFYLEEVMPQAENQDPDIKAHVNSLGENLKTLRLRLRRCHRFLPCENKSKAVEQVKNAFNKLQEKGIYKAMSEFDIFINYIEAYMTMKIRN
# Assays:
# Bv8 expression [1] = assay: Regulation of Bv8 gene expression in cultured mouse BMMNCs (Taqman); assay type: cell-based; conditions: for up-regulation of Bv8 in unsorted BMMNCs: 10 ng/ml, 4 hr
# Method: RNA from tissues or cells was prepared using the RNeasy Mini Kit® (Qiagen). 50 ng total RNA per reaction was used for the real time PCR (Taqman™) analysis. For mouse/human Bv8 and EG-VEGF/Bv8 receptor 1 (PKR-1/EG-VEGFR1, R-1), testis RNA (BD Biosciences) served as control. For mouse/human EG-VEGF/Bv8 receptor 2 (PKR-2/EG-VEGFR2, R2), hypothalamus or whole brain (BD Biosciences) served as the control tissues. Reactions were run on 9600 Emulation mode of 7500 Real […] time PCR system (Applied Biosystems) and the absolute quantification with standard curve was used with Sequence Detection System (SDS) software. The expression level of each gene was further quantified against the house-keeping gene RPL19 in the same sample. To confirm the expression of VEGFR-1, VEGFR-2, EG-VEGF/Bv8 R1 and EG-VEGF/Bv8 R2 in the tumor-associated endothelial cells, standard RT-PCR was conducted using the Titan One Tube™ RT-PCR system (Roche) and the end products were checked on 2% agarose gel (Invitrogen) for the correct size. The sequence of Taqman™ primers are as follows: […]
# Recombinant mouse MCP-1, MIP-1α, MIP-1β, MIP-2, bFGF, VEGF, GM-CSF, G-CSF, SDF-1 and TNFα were purchased from R&D Systems (Minneapolis, Minn.). Recombinant mouse KC, IFNγ, Bv8 (Prokineticin-2), IL-4, IL-10, IL-13, TGF-β were from PeproTech Inc. (Rocky Hill, N.J.). […] Conditioned media at 1:3 dilution were used (final FBS concentration was 0.17%). Data were normalized against total cell number. BM cells were flushed from mouse leg bones with DMEM containing 10% FBS. Cells were centrifuged at 1200 rpm for 5 min and resuspended in HBSS media containing 0.2% BSA (low endotoxin, Serologicals Corp. Norcross, Ga.). Two million cells were incubated in 24-well plates with various cytokines for 4 hr at 37° C. in a 5% CO2 incubator. Cells were then transferred in eppendorf tubes, centrifuged and lysed by RNA lysis buffer (Qiagen, Valencia, Calif.). Bv8 expression was assessed by Taqman™ with RPL19 (Ribosomal Protein L19) as the internal control gene. In some cases, CD11b+Gr1+ or CD11b−Gr1− BM cells were obtained using FACS sorting.
# Bv8 expression [2] = assay: Regulation of Bv8 gene expression in cultured human blood and bone marrow cells (Taqman); assay type: cell-based; conditions: for induction of Bv8 expression in human neutrophils and whole bone marrow cells / Bv8 expression in monocytes and lymphocytes: 10 ng/ml, 4 hr
# Method: RNA was prepared using the RNeasy™ Mini Kit (Qiagen). 50 ng total RNA per reaction was used for the real time PCR (Taqman) analysis. For human Bv8, testis RNA (BD Biosciences) served as control. Reactions were run on 9600 Emulation mode of 7500 Real time PCR system (Applied Biosystems, Foster City, Calif.) and the absolute quantification with standard curve was used with Sequence Detection System (SDS) software. The expression level of each gene was further quantified relative to the housekeeping gene RPL19 in the same sample. The sequences of Taqman primers are as follows: Human Bv8 forward: ATG GCA CGG AAG CTA GGA (SEQ ID NO: 10), reverse: GCAGAGCTGAAGTCCTCTTGA (SEQ ID NO: 11), probe: TGCTGCTGGACCCTTCCTAAACCT (SEQ ID NO: 12); Human RPL19 forward: CGC AAG CGC CGT GAA (SEQ ID NO: 28), reverse: GGTCTCTTCCTCCTTGGATAAAGTC (SEQ ID NO: 29), probe: CCAGGCCAAGAAGGAGGAGATCATCA (SEQ ID NO: 30). Human specific VEGF forward: AAT GAC GAG GGC CTG GAG T (SEQ ID NO: 31), reverse: TTGATCCGCATAATCTGCATG (SEQ ID NO: 32), probe: TGTGCCCACTGAGGAGTCCAACATCA (SEQ ID NO: 33).
# (§1) Recombinant human MCP-1, MIP-1α, MIP-1β, MIP-2, bFGF, VEGF, GM-CSF, G-CSF, SDF-1α, M-CSF, Erythropoietin (EPO) and TNFα were purchased from R&D Systems (Minneapolis, Minn.). Recombinant human IL-8, IFNγ, Bv8 (Prokineticin-2), IL-4, IL-10, IL-13, TGF-β were from PeproTech Inc. (Rocky Hill, N.J.). SCF (Stem Cell factor) was from Invitrogen Biosource (Carlsbad, Calif.). In some cases, G-CSF from Amgen (Neupogen/Filgrastim) was used. All cytokines were used at 10 ng/ml. Freshly purified cells were washed and re-suspended in HBSS media containing 0.2% BSA (low endotoxin, Serologicals Corp. Norcross, Ga.). Two million cells were incubated in 24-well plates with various cytokines and chemokines for 4 hr at 37° C. in a 5% CO2 incubator. Cells were then transferred into eppendorf tubes, centrifuged and lysed with RNA lysis buffer (Qiagen, Valencia, Calif.). Bv8 expression was assessed by Taqman with RPL19 (Ribosomal Protein L19) as the internal control gene.
# [3] = tested on: PKR2/EG-VEGFR2 expression; assay: Regulation of PKR2/EG-VEGFR2 expression in human bone marrow cells and neutrophils; assay type: cell-based
# From the text: Taqman reagents for human PKR1/EG-VEGFR1 and PKR2/EG-VEGFR2 were obtained from Applied Biosystems.
# as §1
# Bv8 expression [4] = assay: Bv8 expression in human leukemia cell lines; assay type: cell-based
# Method: U937, HL-60, THP-1, Hel 92.1.7, KG-1, K562, Jurkat cells were obtained from the ATCC® (Manassas, Va.). Most cells were grown in 10% FBS-containing RPMI. KG-1 cells were grown in 20% FBS-containing Iscove's modified Dulbecco's medium. For THP-1 cells, 10% FBS-containing RPMI was used with Sodium Pyruvate, HEPES and β-mercaptoethanol. For regulation studies, 1 million cells with viability higher than 95% were used. Regulation studies were performed under both normoxia and hypoxia conditions for 4 hr in 1 ml HBSS media containing 0.2% BSA.
# human neutrophils = assay: Chemotaxis of peripheral blood neutrophils; assay type: cell-based; conditions: for effect on neutrophil migration: all concentrations tested, data not shown
# Method: 10^6 cells were washed with HBSS containing 0.2% BSA before putting into transwell insert with 5 μm pore size (Corning Incorporated, Lowell, Mass.). In the lower chamber, media alone or media with various cytokines at various concentrations (maximum at 200 ng/ml) was added. After 3 hr at 37° C., cells in the lower chamber were transferred, mixed with 9 ml ZPAK solution and counted on Z2 Coulter Particle Count and Size Analyzer (Beckman Coulter, Fullerton, Calif.).
# TIB42-TAEC cells = assay: In vitro tube formation of tumor-associated endothelial cells; assay type: cell-based, mouse; conditions: Bv8 200 ng/ml, VEGF-A 100 ng/ml, 36 hours
# Method: Tumor associated endothelial cells (TAECs) were isolated using a magnetic beads sorting system (Miltenyi Biotech), essentially as previously described (Hida et al., Cancer Res 64:8249-8255 (2004)). Briefly, TIB42 mouse lymphoma cells were injected into the dorsal lateral flanks of female beige nude mice. When tumors reached a diameter of […], they were excised, minced and then digested with collagenase II (Worthington Biochemical Corporation). Cell suspensions were than filtered using 100 μm to 40 μm meshes. CD31^+ cells were finally sorted using a FITC-CD31 antibody (BD Biosciences) according to the manufacturer's instructions. CD31+ cells were seeded in gelatin coated plates in the presence of EGM-2MV media (Cambrex). After 24 hs in culture CD31+ non-adherent cells were removed by washing several times with PBS.
# For in vitro tube formation, TIB42-TAEC cells (passages 6-8) were starved for 5 hs in serum free medium. After this, cells were collected and resuspended in serum free medium supplemented with 5% BSA and treated with VEGF-A (100 ng/ml), Bv8 (200 ng/ml) or no addition (control). For specificity tests, Bv8, was incubated in the presence of anti-Bv8 Mabs (10 μg/ml). 5×10^5 cells were seeded in each well of a 24 well pre-coated with Matrigel™ (BD Biosciences) and tube formation was evaluated after 36 hours.
# p44/42 MAPK = assay: MAPK phosphorylation in TAECs (Western blot); assay type: cell-based, mouse
# Method: TIB42-TAEC cells were starved for 6 hr in basal media supplemented with 0.5% BSA. Cells were then stimulated with human recombinant Bv8 (200 ng/ml; PeproTech), Complete Media (CM), VEGF (100 ng/ml; PeproTech) or BSA (0.5%). Cell extracts were collected at the indicated time-points. Western blot analysis of the extracts from TIB42-TAEC cells was performed using PhosphoPlus p44/42 MAPK™ antibody kit (Cell signaling).
# PKR1/EG-VEGFR1 = biological target: T1, PKR1/EG-VEGFR1 (Homo sapiens, UniProt Q8TCW9); assay: Bv8 bioactivity assay, GeneBLAzer NFAT-CHO cells transfected with PKR1/EG-VEGFR1; assay type: cell-based; conditions: Bv8 0.2-200 ng/ml; VEGF-A up to 200 ng/ml
# T1 construct: host or cells: GeneBLAzer NFAT-CHO cells
# Method: The GeneBLAzer® NFAT-CHO cells were obtained from Invitrogen Corporation (Carlsbad, Calif.). Cells were stably transfected with PKR1/EG-VEGFR1 and grown in DMEM (high glucose) containing 10% dialysed serum, 0.1 mM NEAA, 2 mM GlutaMax™ (Gibco), 1 mM sodium pyruvate, 10 μg/ml Zeocin, 500 μg/ml hygromycin. Cells were plated into 96-well Viewplate (Packard) with 2.5×10^4 in […] in 1% DMEM overnight at 5% CO2, 37° C. On the following day, cells were treated with various column fractions that were concentrated with Microcon Centrifugal Filter Devices (Ultracel YM-3) from Millipore. 0.2-0.02 ng/ml hBv8 (Peprotech Inc.) prepared in 1% DMEM was used as a positive control. One hour later, media was removed and replaced with […] Hank's solution containing 0.1% BSA and 6× loading buffer containing 1 mM CCF4 (Invitrogen Corporation). Plates were incubated for 1.5 hr at room temperature in the dark and read on Wallac plate reader at excitation wavelength of 410 nm and emission wavelength of 450/520 nm. Negative controls were cells with no ligand added and control media alone. CHO cells were stimulated with recombinant human Bv8 or pooled fractions for 1 hr before adding the β-lactamase substrate CCF4. To assess the specificity of the column fractions, anti-Bv8 antibodies 2B9 and 3F1 were added at […].
# T1 sequence (Q8TCW9 whole entry): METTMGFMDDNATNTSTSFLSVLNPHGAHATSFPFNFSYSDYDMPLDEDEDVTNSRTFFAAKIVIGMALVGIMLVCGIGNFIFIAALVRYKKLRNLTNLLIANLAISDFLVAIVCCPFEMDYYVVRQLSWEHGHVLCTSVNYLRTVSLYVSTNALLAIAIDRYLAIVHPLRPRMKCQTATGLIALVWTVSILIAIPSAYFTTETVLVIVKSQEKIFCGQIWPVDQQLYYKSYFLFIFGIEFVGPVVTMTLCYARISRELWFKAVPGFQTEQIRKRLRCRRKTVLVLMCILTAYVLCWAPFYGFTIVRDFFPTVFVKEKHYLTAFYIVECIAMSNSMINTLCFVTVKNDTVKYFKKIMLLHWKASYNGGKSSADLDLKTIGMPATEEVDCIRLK
molecule,measurement,setting,value
GM-CSF: recombinant mouse or human granulocyte-macrophage-CSF (R&D Systems),effect on Bv8 expression,Bv8 expression [1]; BMMNCs and sorted subsets (FIG. 1 c&d),no effect
same,induction of Bv8 expression in human neutrophils and whole bone marrow cells,Bv8 expression [2],~2.5 fold
same,inhibition of Bv8 expression in human monocytes,Bv8 expression [2]; 4 hr treatment,about 75%
same,regulation of PKR2/EG-VEGFR2 in human bone marrow,[3],regulate PKR2/EG-VEGFR2 to a significant level
same,up-regulation of PKR2/EG-VEGFR2 expression in human neutrophils,"[3]; 4 hr incubation, average",4 fold
same,Bv8 expression in HL-60,Bv8 expression [4],Neither G-CSF nor GM-CSF affected Bv8 expression
same,induction of Bv8 expression in leukemia cell lines,Bv8 expression [4]; any of the cell lines tested,no significant induction
IL-1β: cytokine interleukin-1β,induction of Bv8 expression in human neutrophils and whole bone marrow cells,Bv8 expression [2],no stimulatory effect
IL-6: cytokine interleukin-6,up-regulation of Bv8 in unsorted BMMNCs,Bv8 expression [1],did not show any significant stimulation
same,induction of Bv8 expression in human neutrophils and whole bone marrow cells,Bv8 expression [2],no stimulatory effect
IL-8: recombinant human IL-8 (PeproTech),concentration required to stimulate neutrophil migration,human neutrophils,20 nM
MCP-1: recombinant human MCP-1 (R&D Systems),effect on neutrophil migration,human neutrophils,did not show any effect
SCF: Stem Cell factor (Invitrogen Biosource),induction of Bv8 expression in human neutrophils and whole bone marrow cells,Bv8 expression [2],no effect
SDF-1: recombinant mouse SDF-1 (R&D Systems),up-regulation of Bv8 in unsorted BMMNCs,Bv8 expression [1],did not show any significant stimulation
SDF-1α,Bv8 expression in monocytes and lymphocytes,Bv8 expression [2],significant stimulatory effect only on monocytes
same,concentration required to stimulate neutrophil migration,human neutrophils,20 nM
VEGF-A: recombinant vascular endothelial growth factor-A,tube formation in Matrigel,TIB42-TAEC cells,formed tubes
same,MAP kinase phosphorylation in TAECs,p44/42 MAPK,strong induction of MAP kinase phosphorylation
same,stimulation of PKR1/EG-VEGFR1 transfected CHO cells,PKR1/EG-VEGFR1,did not elicit any response
same,effect on neutrophil migration,human neutrophils,did not show any effect
B1,induction of Bv8 expression in human neutrophils and whole bone marrow cells,Bv8 expression [2],no effect
B2,Bv8 expression in monocytes and lymphocytes,Bv8 expression [2],up-regulated
